These results are taken from patent publication US10005767B2, “Compositions and methods for inhibition of the JAK pathway” (Rigel Pharmaceuticals, Inc., priority 2009, dated 2018).

Like-named read-outs stand apart in the source and are kept apart here.

The subject of the test is human primary T-cells, IL-2 stimulated proliferation (JAK-1 and JAK-3 dependent; reported as JAK3 activity). Briefly: Human primary T-cell proliferation stimulated by IL-2 (Example 3). The test is classed as cell-based. As to conditions: tested under conditions described in Example 3 (IL-2 stimulated human primary T-cell proliferation), read-out: ability to inhibit JAK3 activity, IC50 range (Table V). In a few lines: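 Peripheral-blood human T-cells pre-activated via TCR/CD28, IL-2-starved overnight, then cultured 72 h at 37 °C with compound in Yssel's medium containing IL-2 (80 U/mL in cell suspension). Proliferation read as viable-cell ATP by CellTiter-Glo luminescence; reduction versus control taken as JAK pathway inhibition.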

Usually IC50 stands for the concentration that inhibits the measured activity by half. As to `Cc1cnc(Nc2ccc(S(=O)(=O)C(F)(F)F)cc2)nc1Nc1ccc2oc(=O)[nH]c2c1` [Compound I-117, N4-(benzo[d]oxazol-2(3H)-on-5-yl)-N2-(4-trifluoromethylsulfonyl)phenyl-5-methylpyrimidine-2,4-diamine], the IC50 was below 500 nM.
Same read-out and setting: the same measure for `Cc1cnc(Nc2cccc(S(N)(=O)=O)c2)nc1Nc1ccc2c(c1)oc(=O)n2C` [Compound I-63, N2-((3-aminosulfonyl)phenyl)-N4-(3-methyl-2-oxo-2,3-dihydrobenzo[d]oxazol-6-yl)-5-methylpyrimidine-2,4-diamine]: below 500 nM.
Turning to `Cc1cnc(Nc2cnc(N3CC4CCC(C3)N4)c(C)c2)nc1Nc1ccc2oc(=O)[nH]c2c1` [II-61, 5-(2-(6-(3,8-diaza-bicyclo[3.2.1]octan-3-yl)-5-methylpyridin-3-ylamino)-5-methylpyrimidin-4-ylamino)benzo[d]oxazol-2(3H)-one], the IC50 (Homo sapiens, T-cell) is below 500 nM.
With `Cc1cnc(Nc2cccc(C#N)c2)nc1Nc1ccc2[nH]c(=O)[nH]c2c1` [Compound I-28, N4-(benzimidazolin-2-on-5-yl)-N2-(3-cyanophenyl)-5-methylpyrimidine-2,4-diamine], the IC50 was below 500 nM.
Consider `Cc1cc(Nc2ncc(C)c(Nc3ccc4oc(=O)[nH]c4c3)n2)cc(C(F)(F)F)c1` [Compound I-479, 5-methyl-N2-(3-methyl-5-trifluoromethyl)phenyl-N4-(2-oxo-2,3-dihydro-1,3-benzoxazol-5-yl)-2,4-pyrimidinediamine], for which the IC50 was below 500 nM.
As for `[2H]C([2H])([2H])Oc1cc(C)cc(Nc2ncc(C)c(Nc3ccc4oc(=O)[nH]c4c3)n2)c1` [Compound I-266, 5-(2-(3-methyl-5-trideuteromethoxyphenylamino)-5-methylpyrimidin-4-ylamino)benzo[d]oxazol-2(3H)-one], the IC50 (Homo sapiens, T-cell) was below 500 nM.
Take `CCN1Cc2ccc(Nc3ncc(C)c(Nc4ccc5oc(=O)[nH]c5c4)n3)cc2C1` [III-5, N4-(benzo[d]oxazol-2(3H)-on-5-yl)-N2-(2-ethylisoindolin-5-yl)-5-methylpyrimidine-2,4-diamine]: where the note is “Homo sapiens, T-cell”, the IC50 is below 500 nM.
As to `Cc1ccc(Nc2ncc(C)c(Nc3ccc4[nH]c(=O)oc4c3)n2)cc1NS(C)(=O)=O` [Compound I-104, N2-((3-methylsulfonylamino-4-methyl)phenyl)-N4-(2-oxo-2,3-dihydrobenzo[d]oxazol-6-yl)-5-methylpyrimidine-2,4-diamine], the half-maximal inhibitory concentration (IC50) is below 500 nM.
As for `Cc1cnc(Nc2cccc(S(=O)(=O)C3CCCC3)c2)nc1Nc1ccc2oc(=O)[nH]c2c1` [Compound I-157, 5-[2-(3-Cyclopentanesulfonyl-phenylamino)-5-methyl-pyrimidin-4-ylamino]-3H-benzooxazol-2-one], for the setting “Homo sapiens, T-cell”, the IC50 is below 500 nM.
With `COc1cc(Nc2ncc(C)c(Nc3ccc4oc(=O)[nH]c4c3)n2)cc(C)c1OC` [Compound I-452, 5-(2-(3,4-dimethoxy-5-methylphenylamino)-5-methylpyrimidin-4-ylamino)benzo[d]oxazol-2(3H)-one], the IC50 (Homo sapiens, T-cell) is below 500 nM.
Consider `Cc1cnc(Nc2ccc(N3CCN(C)CC3)nc2)nc1Nc1ccc2c(c1)n(C)c(=O)n2C` [II-20, N4-(1,3-dimethylbenzimidazolin-2-on-5-yl)-N2-[2-(4-methylpiperazino)pyridin-5-yl]-5-methylpyrimidine-2,4-diamine], for which the IC50 is below 500 nM.
Regarding `Cc1cnc(Nc2ccc(N3CCOCC3)nc2)nc1Nc1cc(C)c2oc(=O)[nH]c2c1` [II-73, 7-methyl-5-(5-methyl-2-(6-morpholinopyridin-3-ylamino)pyrimidin-4-ylamino)benzo[d]oxazol-2(3H)-one], for the setting “Homo sapiens, T-cell”, the IC50 was below 500 nM.
`Cc1cnc(Nc2cc(Cl)c(F)c(C(F)(F)F)c2)nc1Nc1ccc2oc(=O)[nH]c2c1` [Compound I-230, 5-(2-(3-chloro-4-fluoro-5-(trifluoromethyl)phenylamino)-5-methylpyrimidin-4-ylamino)benzo[d]oxazol-2(3H)-one]: the IC50 (Homo sapiens, T-cell) was 500 to 5000 nM.
Still for that read-out and setting: the same measure for `Cc1cnc(Nc2ccc(C)c(C(F)(F)F)c2F)nc1Nc1ccc2oc(=O)[nH]c2c1` [Compound I-532, 5-(2-(2-fluoro-4-methyl-3-(trifluoromethyl)phenylamino)-5-methylpyrimidin-4-ylamino)benzo[d]oxazol-2(3H)-one]: below 500 nM.
Consider `Cc1cnc(Nc2cccc(N3CCOCC3)c2)nc1Nc1ccc2c(c1)oc(=O)n2C` [Compound I-49, N4-(3-methylbenzo[d]oxazol-2(3H)-on-6-yl)-N2-((3-morpholinyl)phenyl)-5-methylpyrimidine-2,4-diamine], for which the IC50 is below 500 nM.
With `Cc1cnc(Nc2ccc(N3CC4(C)CN(C)CC(C)(C3)C4)nc2)nc1Nc1ccc2oc(=O)[nH]c2c1` [II-117, 5-methyl-N4-(2-oxo-2,3-dihydro-1,3-benzoxazol-5-yl)-N2-[2-(1,3,5-trimethyl-3,7-diazabicyclo[3.3.1]nonan-7-yl)pyridin-5-yl]-2,4-pyrimidinediamine], the IC50 (Homo sapiens, T-cell) is below 500 nM.
Regarding `Cc1cnc(Nc2ccc(OC(F)F)c(F)c2)nc1Nc1ccc2oc(=O)[nH]c2c1` [Compound I-347, N2-(4-difluoromethoxy-3-fluoro)phenyl-5-methyl-N4-(2-oxo-2,3-dihydro-1,3-benzoxazol-5-yl)-2,4-pyrimidinediamine], the IC50 is below 500 nM.
Same read-out and setting: the same measure for `Cc1cc(Nc2ncc(C)c(Nc3ccc4oc(=O)[nH]c4c3)n2)ccc1OC(C)(C)C(N)=O` [Compound I-391, N2-[4-(1-aminocarbonyl-1-methyl)ethoxy-3-methyl]phenyl-5-methyl-N4-(2-oxo-2,3-dihydro-1,3-benzoxazol-5-yl)-2,4-pyrimidinediamine]: below 500 nM; for `Cc1cc(Nc2ncc(C)c(Nc3ccc4oc(=O)[nH]c4c3)n2)ccc1N1CCN2CCCCC2C1` (centres unmarked) [Compound I-122, N4-(benzo[d]oxazol-2(3H)-on-5-yl)-N2-((4-(dihydro-1H-pyrido[1,2-a]pyrazin-2(6H,7H,8H,9H,9aH)-yl)-3-methyl)phenyl)-5-methylpyrimidine-2,4-diamine]: below 500 nM.
On to `Cc1ccc(Nc2ncc(C)c(Nc3ccc4oc(=O)[nH]c4c3)n2)cc1-c1cccnc1` [Compound I-444, 5-(5-methyl-2-(4-methyl-3-(pyridin-3-yl)phenylamino)pyrimidin-4-ylamino)benzo[d]oxazol-2(3H)-one], for which the IC50 (Homo sapiens, T-cell) was below 500 nM.
`Cc1cnc(Nc2ccc(Cl)c(OC(F)F)c2)nc1Nc1ccc2oc(=O)[nH]c2c1` [Compound I-418, N2-(4-chloro-3-difluoromethoxy)phenyl-5-methyl-N4-(2-oxo-2,3-dihydro-1,3-benzoxazol-5-yl)-2,4-pyrimidinediamine]: the IC50 was below 500 nM.
Same read-out and setting: the same measure for `Cc1cnc(Nc2cccc(OCC(=O)N(C)C)c2)nc1Nc1ccc2oc(=O)[nH]c2c1` [Compound I-326, N2-(3-dimethylaminocarbonylmethoxy)phenyl-5-methyl-N4-(2-oxo-2,3-dihydro-1,3-benzoxazol-5-yl)-2,4-pyrimidinediamine]: below 500 nM; for `COCCOc1cc(Nc2ncc(C)c(Nc3ccc4oc(=O)[nH]c4c3)n2)ccc1OC` [Compound I-292, N2-[4-methoxy-3-(2-methoxyethoxy)]phenyl-5-methyl-N4-(2-oxo-2,3-dihydro-1,3-benzoxazol-5-yl)-2,4-pyrimidinediamine]: below 500 nM.
